Among the data in patent US4416870A, “Antibiotic compound, its production and its medicinal use” (Bayer Aktiengesellschaft, priority 1981, dated 1983) are ED100 and solubility values, retold here.

Data set [1] deals with E. coli Neumann. Kind of data set: White mouse, ED100 (complete cure) on infection with E. coli Neumann, single subcutaneous application. The class given is in vivo, white mouse infected with E. coli. Particulars: Escherichia coli, sc, 0.5 h, once, 30 minutes after infection, subcutaneously. The method, then:
For the white mouse, an ED100 (complete cure) is found in vivo, at 3 mg of antibiotic/kg of body weight, on infection with E. coli Neumann; therapy: application once, 30 minutes after infection, subcutaneously.

Another data set is described as follows: physchem. Particulars: organic solvent or mixture.
The next data set deals with Klebsiella pneumoniae 63. The data set can be described thus: Animal test (mice), ED100 after intraperitoneal infection and subcutaneous treatment (Example B). The class given is in vivo, mice infected with Klebsiella pneumoniae. Conditions: sc, dose at which all infected and treated animals survive. How it is done:
(§1) BAYi 3265 component A animal test (mice) | ED100 after intraperitoneal | infection and subcutaneous |Infecting germ treatment in mg/kg The animals were infected with a quantity of bacteria, which quantity led to the death of the control animals within 24 hours. The ED100 was the dose which allowed all infected and treated animals to survive.

A further data set concerns E. coli 205 Kn. Described as above. Conditions: Escherichia coli, sc, dose at which all infected and treated animals survive. The class given is in vivo, mice infected with E. coli. The method, then:
as §1

The test system of data set [2] is E. coli Neumann. The description is as above. Format: in vivo, mice infected with E. coli. Particulars: Escherichia coli, sc, dose at which all infected and treated animals survive. How it is done:
as §1

*1 amine or outer side, *2 acyl side, *3 side chain or, on linkers, in order; H or OH if unused. Where a SMILES comes first, the peptide text is derived from it. [ ]: non-standard residue; d: D form. ξ: configuration not given here. X1 = Cn1c(=O)ccn(C2SC(C(O)C(N[*:1])C(=O)[*:2])C(O)C2O)c1=O; ξOrn(N(OH)Ac) = CC(=O)N(O)CCCC(N)C(=O)O; ξS = NC(CO)C(=O)O Some results are limits rather than exact numbers.

A word on the solubility: it is the dissolved amount per volume that the medium holds. Turning to `CC(=O)N(O)CCCC(N)C(=O)NC(CCCN(O)C(C)=O)C(=O)NC(CCCN(O)C(C)=O)C(=O)NC(CO)C(=O)NC(C(=O)O)C(O)C1SC(n2ccc(=O)n(C)c2=O)C(O)C1O` (centres unmarked) [BAYi 3265 Component A] (H-[ξOrn(N(OH)Ac)][ξOrn(N(OH)Ac)][ξOrn(N(OH)Ac)][ξS][X1]-OH), the ED100 was determined as 3 mg/kg in the data set on E. coli Neumann [1], 0.2 mg/kg with Klebsiella pneumoniae 63, 0.1 mg/kg in the data set on E. coli 205 Kn and 0.5 mg/kg in the data set on E. coli Neumann [2]. In addition, the solubility is less than 100 µg/mL in the data set “physchem” (chloroform); less than 10000 µg/mL in “physchem” (dimethylformamide); less than 10000 µg/mL in the data set “physchem” (dimethylsulphoxide); less than 100 µg/mL in the data set “physchem” (ether); less than 100 µg/mL in “physchem” (ethyl acetate); less than 10000 µg/mL in “physchem” (methanol). Besides, in “physchem” (petroleum ether), the solubility is less than 100 µg/mL.
